How the values were obtained:
human p38 MAPK α = human p38 MAPK α (Homo sapiens (Human), UniProt Q16539); assay: Evaluation of p38 MAPK inhibitory activity (Alpha Screen, ATF2 phosphorylation); assay type: biochemical; conditions: p38α/SAPK2a 1.5 nM, ATP 100 μM, biotinylated ATF2 30 nM
Protocol: Using human p38 MAPK α, the p38 MAPK inhibitory activity of Compound (I) was studied by a method partially modified from the method described in Current Medicinal Chemistry (2004, No. 11, pp. 721-730).
A solution of each test compound solution in 100% DMSO and a p38α/SAPK2a solution (Final Concentration: 1.5 nM) (Invitrogen) were added to a 384-well plate, and then the plate was incubated at room temperature in a dark place for 1 hour. Thereafter, ATP (Final Concentration: 100 μM), which is a phosphate donor, and biotinylated ATF2 (Final Concentration: 30 nM) (upstate), which is a substrate, were added, and the resulting mixture was allowed to react at room temperature in a dark place for 1 hour (the final concentration of DMSO was 0.25%). After the reaction, an anti-phosphorylated ATF2 antibody (Final Concentration: 1 nM) (Cell Signaling), anti-IgG acceptor beads (Final Concentration: 20 μg/mL) (PerkinElmer) and streptavidin donor beads (Final Concentration: 20 μg/mL) (PerkinElmer) were added, and the resultant was incubated at room temperature in a dark place for 1 hour. Using a microplate analyzer (Fusion-α, Packard) in Alpha Screen method (Amplified Luminescent Proximity Homogeneous Assay), the light emission was detected. The IC50 value of each compound was calculated by sigmoidal dose-response regression using Prism 4.02 (GraphPad Software, Inc.).

TNFα production = assay: Mouse LPS-induced cytokine production model; assay type: in vivo; conditions: BALB/c mouse, 50 mg/kg oral 30 minutes before LPS 1 mg/kg i.p., serum 60 minutes after LPS
Protocol: The action of Compound (I) on the TNFα production induced by LPS administration in a mouse was studied by a method partially modified from the method described in Journal of Immunology (1992, Vol. 148, pp. 1890-1897).
To each BALB/c mouse (male, 7 to 9-week old, Charles River Laboratories Japan, Inc.), LPS (0111:B4, SIGMA) was intraperitoneally administered at a dose of 1 mg/kg. Sixty minutes after the LPS administration, blood was collected from the abdominal vena cava under anesthesia and centrifuged for 15 minutes at 4° C. to obtain a serum. For the measurement of TNF-α in the serum, ELISA Development System (R&D Systems) was used. Each test compound was dissolved in DMSO (Final Concentration: 2%), and then the obtained solution was dissolved in a 27% aqueous solution of 2-hydroxypropyl-β-cyclodextrin (hereinafter referred to as “HP-β-CD”; Nihon Shokuhin Kako Co., Ltd.). Thirty minutes before the LPS administration, the resulting solution was orally administered at 50 mg/kg.

HepG2 cells = assay: Ability to induce drug-induced phospholipidosis (HepG2, HCS Lipid TOX Green); assay type: cell-based, human; conditions: 48 hours
Protocol: Whether an ability to induce phospholipidosis by Compound (I) was observed or not was studied. The evaluation of Compound 46b described in the Examples was carried out by a method partially modified from the method described in Experimental and Toxicologic Pathology (2007, Vol. 58, pp. 375-382).
Each test compound and HCS Lipid TOX Green Phospholipidosis Detection Regent (Invitrogen), which is a phospholipid staining solution, were mixed with HepG2 cells, which are a cell line derived from human hepatoma, and the cells were cultured in the presence of 5% CO2 at 37° C. for 48 hours. The culture supernatant after the culturing was removed, and Hoechest 33258 (Invitrogen), which is a nucleic acid staining solution, was added, followed by allowing the resulting mixture to react in the dark at room temperature for 20 minutes. The resultant was washed with PBS solution. Then the fluorescence intensity was measured with a microplate analyzer (Fusion-α, Packard), and FLA (a relative value when taking amiodarone hydrochloride (10 μM) as 1, the amiodarone hydrochloride being a positive control substance) was calculated according to the following equations. The case where FLA was less than 1 was judged as negative, and the case where FLA was not less than 1 was judged as positive. […]

ICR mouse = assay: Evaluation of hepatotoxicity in mouse (plasma AST); assay type: in vivo; conditions: oral 500 mg/kg, plasma on the day after administration
Protocol: Compound (I) was suspended in 0.5% methylcellulose (Wako Pure Chemical Industries, Ltd.) to prepare a 50 mg/mL solution to be administered. To each ICR mouse (male, 7-week old, Charles River Laboratories Japan, Inc.), each compound was orally administered at a dose of 500 mg/kg. On the day after the administration, blood was collected from the posterior vena cava, and the obtained blood was centrifuged to collect blood plasma. AST (aspartate aminotransferase) value, which is a marker of hepatic disorders in blood plasma, was measured with a biochemistry automatic analyzer (Hitachi 7070, Hitachi, Ltd.). Comparative Compound 4 was suspended in 0.5% sodium carboxymethylcellulose (Wako Pure Chemical Industries, Ltd.) before use.

[1] = system: hyperalgesia in Bennett model; assay: Hyperalgesia in neuropathic pain model (Bennett model), plantar test; assay type: in vivo; conditions: SD rat, Bennett model day 14, oral 100 mg/kg, 90 minutes after administration; FIG. 2
Description: The action of Compound (I) on hyperalgesia in pain models was studied. As the pain models, models partially modified from an inflammatory pain model (a carrageenin paw edema pain model) and neuropathic pain models (Bennett model and Chung model) described in documents (Anesth. Analg., 2009, Vol. 108, pp. 1680-1687; Pain, 1988, Vol. 33, pp. 87-107; and Pain, 1992, Vol. 50, pp. 355-363) were used.
The Bennett model was produced by lightly ligating the sciatic nerve in the left thigh of each Crl:CD (SD) rat (male, 6-week old, Charles River Laboratories Japan, Inc.) at 4 points with chromic catgut (4-0). Fourteen days after the Bennett model was produced, each test compound was orally administered, and plantar test was performed 90 minutes after the administration. The plantar test was carried out by measuring the pain threshold (sec) of the left footpad (model foot) using a plantar thermal stimulation device (Plantar test 7370, Ugo Basile) wherein the thermal stimulus intensity was set to 60. Each test compound was suspended in 0.5 w/v % methylcellulose (Wako Pure Chemical Industries, Ltd.) and the obtained solution was orally administered. Compound 46b described in the Examples was administered at a dose of 100 mg/kg, and gabapentin (Toronto Research Chemicals), which is an anticonvulsant, was administered as a comparative control agent at a dose of 100 mg/kg.

Chain of human p38 MAPK α (Q16539 whole entry): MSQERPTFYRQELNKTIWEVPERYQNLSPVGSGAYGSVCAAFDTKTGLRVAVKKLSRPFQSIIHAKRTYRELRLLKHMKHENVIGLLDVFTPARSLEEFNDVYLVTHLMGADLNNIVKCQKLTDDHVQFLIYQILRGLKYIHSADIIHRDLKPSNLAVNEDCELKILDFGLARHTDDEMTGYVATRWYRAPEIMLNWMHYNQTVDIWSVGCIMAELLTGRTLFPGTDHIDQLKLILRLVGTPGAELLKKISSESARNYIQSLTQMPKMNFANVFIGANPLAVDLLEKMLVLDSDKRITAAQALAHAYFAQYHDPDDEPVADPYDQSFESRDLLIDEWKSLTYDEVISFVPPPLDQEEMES

- IC50 (human p38 MAPK α): 15 nM
SMILES: COc1c(NC(=O)N[C@@H]2Cc3ccccc3[C@@H]2O)cc(C(C)(C)C)cc1[C@@H](O)C(F)(F)F [Compound 46b, 1-(5-tert-butyl-2-methoxy-3-((R)-2,2,2-trifluoro-1-hydroxyethyl)phenyl)-3-((1S,2R)-1-hydroxy-2,3-dihydro-1H-indene-2-yl)urea]
- Suppression Ratio of TNFα production (TNFα production): 100.0%
- FLA value (relative to amiodarone hydrochloride 10 μM as 1) (HepG2 cells; concentration up to 10 μM): less than 1
- phospholipidosis judgement (HepG2 cells; up to 10 μM, FLA less than 1 = negative): negative
- AST value (ICR mouse): 47 U/L
- pain threshold (sec), plantar test, compared to solvent-administered group [1]: significantly elevated

From patent publication US8653304B2, “2,3-dihydro-1H-indene-2-yl urea derivative and pharmaceutical application of same” (Toray Industries, Inc., priority 2009, dated 2014)
